Laboratory results as given in PMC8703884, “Synthesis and Biological Evaluation of S-, O- and Se-Containing Dispirooxindoles” (Molecules, 2021).
Entries after “also recorded” stand apart in the source; their conditions may differ. Read-outs that look alike come from different tables or passages of the source. Values belong to the compound of their own block, whether it stands above or below them.

Key:
[1] = tested on: HCT116^−/− human colon cancer cells (p53 negative); experiment: MTT cytotoxicity test, HCT116 p53-/-; details: HCT-116, read-out: CC50, HCT^−/−
From the text: (§1) The used models included human prostate cancer cell lines LNCaP and PC3, breast cancer cell line (MCF-7), human colon cancer cells (HCT116^+/+, p53 positive, p53^+/+ and HCT116^−/−, p53 negative, p53^−/−), human lung adenocarcinoma epithelial cell line (A549), SV40-transformed normal human lung fibroblast cells (VA13), as well as human embryonic kidney 293 cells (Hek293) stably expressing SV40 large T antigen (Hek293T). The cytotoxicity of the evaluated molecules was properly assessed using a MTT assay based on the modified approach reported by Ferrari and colleagues.
(§2) To further elucidate the dominant mode of action, we used HCT116^+/+ and HCT116^−/− cells by analogy with the paper published by Shangary and colleagues. This isogenic cell line is commonly applied to investigate the p53/MDM2-dependent mode of action.
(§3) MTT test. The MTT assay was carried out according to [35] with few modifications; 3000 Cells (for HEK293T, A549 and MCF7cell lines) or 4000 cells (for VA13 cell line) were seeded in each well of a 96-well plate. […] Assays were performed in triplicates. […] The MTT solution was then discarded and 140 µL of DMSO was added. The plates were swayed on a shaker (60 rpm) to solubilize the formazan. […] The analysis of cytotoxicity and the estimation of IC50 values were carried out with the built-in functions in the GraphPad Prism program (GraphPad Software, Inc., San Diego, CA) P53 activation.

[2] = MTT cytotoxicity test, Hek293T; format: cell-based; details: human, 72 h incubation
[3] = tested on: HCT116^+/+ human colon cancer cells (p53 positive); experiment: MTT cytotoxicity test, HCT116 p53+/+; details: for CC50: Homo sapiens, HCT-116, read-out: CC50, HCT^+/+; for selectivity S against HCT116^+/+ over HCT116^−/−: ratio of CC50 values of the cell line pair
From the text: as §1, §2, §3

[4] = MTT cytotoxicity test, VA13; format: cell-based; details: human, VA13 SV40-transformed normal lung fibroblast cells, 72 h incubation
Experimental: (§4) MTT test. […] Assays were performed in triplicates.

[5] = tested on: PC3 human prostate cancer cell line; experiment: MTT cytotoxicity test, PC3; format: cell-based; details: Homo sapiens
[6] = tested on: LNCaP human prostate cancer cell line; experiment: MTT cytotoxicity test, LNCaP; format: cell-based; details: for CC50: Homo sapiens, LNCaP, read-out: CC50, LNCaP; for selectivity index S for LNCaP/PC3 cells: ratio of CC50 values of the cell line pair
[7] = tested on: MCF7 breast cancer cell line; experiment: MTT cytotoxicity test, MCF7; format: cell-based; details: Homo sapiens, 72 h incubation
Experimental: as §4

[8] = tested on: A549 human lung adenocarcinoma epithelial cell line; experiment: MTT cytotoxicity test, A549; format: cell-based; details: 72 h incubation

Structure (SMILES): COc1ccc(N2C(=O)C3(CN(C)CC34C(=O)Nc3ccccc34)NC2=S)cc1 (stereo not shown) [Compound 4e, 1′-Methyl-1-(4-methoxyphenyl)-2-thioxodispiro[imidazolidine-4,3′-pyrrolidine-4′,3″-indoline]-2″,5-dione]
CC50 [1]: 36 ± 12.6 µM
melting point: 155 to 156 °C
CC50 at 72 h [2]: 6.5 ± 0.9 µM
CC50 [3]: 27.9 ± 6.94 µM
CC50 at 72 h [4]: 13.2 ± 2.3 µM
CC50 [5]: > 100 µM
CC50 ([6]; MTT test): 3.45 ± 0.45 µM
selectivity index S for LNCaP/PC3 cells [6]: > 30
CC50 [7]: 22.8 ± 5.6 µM
CC50 [8]: 18.9 ± 3.1 µM

Structure (SMILES): CN1CC2(NC(=S)N(Cc3ccccc3)C2=O)C2(C1)C(=O)Nc1ccccc12 (stereo not shown) [Compound 4a, 1′-Methyl-1-benzyl-2-thioxodispiro[imidazolidine-4,3′-pyrrolidine-4′,3″-indoline]-2″,5-dione]
CC50 [1]: 40.1 ± 19.1 µM
melting point: 189 to 190 °C
CC50 at 72 h [2]: 9.8 ± 1.6 µM
CC50 [3]: 66.2 ± 11.7 µM
CC50 at 72 h [4]: 16.1 ± 2.5 µM
CC50 [5]: 30.1 ± 9.1 µM
CC50 ([6]; MTT test): 12.5 ± 2.1 µM
selectivity on LNCaP cells over PC3 cells ([6]; MTT test): moderate selectivity
CC50 [7]: 31.3 ± 6.7 µM
CC50 [8]: 20.3 ± 3.7 µM

Structure (SMILES): Cc1ccc(N2C(=O)C3(CN(C)CC34C(=O)Nc3ccccc34)NC2=S)cc1 (stereo not shown) [Compound 4i, 1′-Methyl-1-(p-tolyl)-2-thioxodispiro[imidazolidine-4,3′-pyrrolidine-4′,3″-indoline]-2″,5-dione]
CC50 [1]: > 100 µM
melting point: 155 to 157 °C
CC50 at 72 h [2]: > 100 µM
CC50 [3]: > 100 µM
CC50 at 72 h [4]: > 100 µM
CC50 [5]: > 100 µM
CC50 ([6]; MTT test): > 100 µM
CC50 [7]: 88.2 ± 32.2 µM
CC50 [8]: > 100 µM

Structure (SMILES): CN1CC2(NC(=[Se])N(c3ccc(F)c(Cl)c3)C2=O)C2(C1)C(=O)Nc1ccc(Cl)cc12 (stereo not shown) [Compound 6r, 5″-Chloro-1-(3-chloro-4-fluorophenyl)-1′-methyl-2-selenoxodispiro[imidazolidine-4,3′-pyrrolidine-4′,3″-indoline]-2″,5-dione]
melting point: 193 to 194 °C (dec.)
CC50 at 72 h [2]: 11.9 ± 0.9 µM
CC50 [5]: > 50 µM
CC50 [6]: 11.8 ± 1.5 µM
CC50, LNCaP ([6]; MTT test): good activity
CC50 [8]: 26.5 ± 5.4 µM

Structure (SMILES): CN1CC2(NC(=S)N(c3ccc(Cl)cc3)C2=O)C2(C1)C(=O)Nc1ccc(Cl)cc12 (stereo not shown) [Compound 4l, 5″-Chloro-1′-methyl-1-(4-chlorophenyl)-2-thioxodispiro[imidazolidine-4,3′-pyrrolidine-4′,3″-indoline]-2″,5-dione]
CC50 [1]: 57.1 ± 5.76 µM
melting point: 239 to 240 °C
CC50 at 72 h [2]: 34 ± 3.4 µM
CC50 [3]: 42.5 ± 9.1 µM
CC50 at 72 h [4]: 30.4 ± 3 µM
CC50 [5]: 2.2 ± 0.7 µM
CC50 ([6]; MTT test): 4.4 ± 0.67 µM
CC50 [7]: 19.1 ± 4.1 µM
CC50 [8]: 37 ± 6.5 µM

Structure (SMILES): CN1CC2(NC(=S)N(c3ccc(F)cc3)C2=O)C2(C1)C(=O)Nc1ccccc12 (stereo not shown) [Compound 4m, 1′-Methyl-1-(4-fluorophenyl)-2-thioxodispiro[imidazolidine-4,3′-pyrrolidine-4′,3″-indoline]-2″,5-dione]
CC50 [1]: 42.4 ± 4.7 µM
melting point: 273 to 274 °C
CC50 at 72 h [2]: > 100 µM
CC50 [3]: 23.3 ± 3.3 µM
CC50 at 72 h [4]: 171 ± 15.8 µM
CC50 [5]: 1.93 ± 0.91 µM
CC50 ([6]; MTT test): 3.4 ± 0.7 µM
CC50 [7]: 106 ± 43.1 µM
CC50 [8]: > 100 µM

Structure (SMILES): CN1CC2(NC(=S)N(c3ccc(F)cc3)C2=O)C2(C1)C(=O)Nc1ccc(Cl)cc12 (stereo not shown) [Compound 4n, 5″-Chloro-1′-methyl-1-(4-fluorophenyl)-2-thioxodispiro[imidazolidine-4,3′-pyrrolidine-4′,3″-indoline]-2″,5-dione]
CC50 [1]: > 100 µM
melting point: 273 to 274 °C
CC50 at 72 h [2]: 53 ± 9.5 µM
CC50 [3]: > 100 µM
CC50 [5]: > 100 µM
CC50 ([6]; MTT test): > 100 µM
CC50 [8]: > 100 µM

Structure (SMILES): C=CCN1C(=O)C2(CN(C)CC23C(=O)Nc2ccccc23)NC1=S (stereo not shown) [Compound 4c, 1′-Methyl-1-allyl-2-thioxodispiro[imidazolidine-4,3′-pyrrolidine-4′,3″-indoline]-2″,5-dione]
CC50 [1]: 14.3 ± 6.65 µM
melting point: 281 to 283 °C (dec.)
CC50 at 72 h [2]: 41.8 ± 12.4 µM
CC50 [3]: > 100 µM
CC50 at 72 h [4]: > 100 µM
CC50 [5]: 53.1 ± 15.8 µM
CC50 ([6]; MTT test): 9.8 ± 3.3 µM
CC50 [7]: > 100 µM
CC50 [8]: 45.9 ± 13.4 µM

Structure (SMILES): COc1cc([C@@H]2c3cc4c(cc3[C@@H](O[C@@H]3O[C@@H]5CO[C@@H](C)O[C@H]5[C@H](O)[C@H]3O)[C@H]3COC(=O)[C@H]23)OCO4)cc(OC)c1O [Etoposide, reference compound]
CC50 [1]: 0.85 ± 0.22 µM
CC50 at 72 h [2]: 0.3 ± 0.1 µM
CC50 [3]: 0.43 ± 0.12 µM
selectivity S against HCT116^+/+ over HCT116^−/− [3]: 1.97
CC50 [7]: 2.6 ± 0.9 µM
CC50 [8]: 0.3 ± 0.1 µM

Structure (SMILES): COc1ccc(N2C(=O)[C@@]3(CN(C)C[C@@]34C(=O)Nc3ccc(Cl)cc34)NC2=S)cc1 (racemic) [Compound 4f, 5″-Cchloro-1′-methyl-1-(4-methoxyphenyl)-2-thioxodispiro[imidazolidine-4,3′-pyrrolidine-4′,3″-indoline]-2″,5-dione]
CC50 [1]: 2.35 ± 0.95 µM
CC50 at 72 h [2]: 1.1 ± 0.1 µM
CC50 [3]: 1.95 ± 0.43 µM
CC50 at 72 h [4]: 2.3 ± 0.4 µM
CC50 [5]: 12.6 ± 2.3 µM
CC50 ([6]; MTT test): 4.5 ± 0.32 µM
selectivity on LNCaP cells over PC3 cells ([6]; MTT test): selective; also recorded: moderate selectivity
selectivity index S for LNCaP/PC3 cells [6]: 2.8
CC50 [7]: 2.3 ± 0.5 µM
CC50 [8]: 2.8 ± 0.4 µM

Continued, in another order:

melting point: 275 to 276 °C
Structure (SMILES): CN1CC2(NC(=S)N(C3CC3)C2=O)C2(C1)C(=O)Nc1ccc(Cl)cc12 (stereo not shown) [Compound 4t, 5″-Chloro-1′-methyl-1-cyclopropyl-2-thioxodispiro[imidazolidine-4,3′-pyrrolidine-4′,3″-indoline]-2″,5-dione]
CC50 [1]: > 100 µM
CC50 at 72 h [2]: > 100 µM
CC50 [3]: > 100 µM
CC50 at 72 h [4]: > 100 µM
CC50 [5]: > 100 µM
CC50 ([6]; MTT test): > 100 µM
CC50 [7]: > 100 µM
CC50 [8]: > 100 µM

melting point: 284 to 285 °C (dec.)
Structure (SMILES): COc1ccc(N2C(=O)C3(CN(C)CC34C(=O)Nc3ccc(Cl)cc34)NC2=[Se])cc1 (stereo not shown) [Compound 6f, 5″-Chloro-1-(4-methoxyphenyl)-1′-methyl-2-selenoxodispiro[imidazolidine-4,3′-pyrrolidine-4′,3″-indoline]-2″,5-dione]
CC50 at 72 h [2]: 14 ± 1.5 µM
CC50 at 72 h [4]: 12.5 ± 1.5 µM
CC50 [7]: 20.4 ± 3.6 µM
CC50 [8]: 15.8 ± 1.5 µM

melting point: 273 to 274 °C
Structure (SMILES): CN1CC2(NC(=S)N(Cc3cccc(Cl)c3)C2=O)C2(C1)C(=O)Nc1ccccc12 (stereo not shown) [Compound 4o, 1′-Methyl-1-(3-chlorobenzyl)-2-thioxodispiro[imidazolidine-4,3′-pyrrolidine-4′,3″-indoline]-2″,5-dione]
CC50 [1]: > 100 µM
CC50 at 72 h [2]: 48 ± 5.3 µM
CC50 [3]: > 100 µM
CC50 at 72 h [4]: 36.3 ± 3.2 µM
CC50 [5]: > 100 µM
CC50 ([6]; MTT test): > 100 µM
CC50 [7]: 23.2 ± 3.6 µM
CC50 [8]: 53.4 ± 11.2 µM

melting point: 224 to 225 °C
Structure (SMILES): CN1CC2(NC(=S)N(CCCN3CCOCC3)C2=O)C2(C1)C(=O)Nc1ccc(Cl)cc12 (stereo not shown) [Compound 4v, 5″-Chloro-1′-methyl-1-(3-morpholinopropyl)-2-thioxodispiro[imidazolidine-4,3′-pyrrolidine-4′,3″-indoline]-2″,5-dione]
CC50 [1]: > 100 µM
CC50 at 72 h [2]: 103 ± 27.7 µM
CC50 [3]: > 100 µM
CC50 [5]: > 100 µM
CC50 ([6]; MTT test): > 100 µM
CC50 [8]: > 100 µM

melting point: 261 to 262 °C
Structure (SMILES): CN1CC2(NC(=S)N(Cc3cccc(Cl)c3)C2=O)C2(C1)C(=O)Nc1ccc(Cl)cc12 (stereo not shown) [Compound 4p, 5″-Chloro-1′-methyl-1-(3-chlorobenzyl)-2-thioxodispiro[imidazolidine-4,3′-pyrrolidine-4′,3″-indoline]-2″,5-dione]
CC50 [1]: > 100 µM
CC50 at 72 h [2]: 18.4 ± 1.7 µM
CC50 [3]: 34.2 ± 5.7 µM
selectivity S against HCT116^+/+ over HCT116^−/− [3]: > 2.9
CC50 at 72 h [4]: 12.3 ± 1.6 µM
CC50 [5]: 2.2 ± 1.4 µM
CC50 ([6]; MTT test): 4.1 ± 0.1 µM
CC50 [7]: 6.6 ± 1 µM
CC50 [8]: 11.3 ± 2.4 µM

melting point: 273 to 274 °C
Structure (SMILES): CCOc1ccc(N2C(=O)NC3(CN(C)CC34C(=O)Nc3ccc(Cl)cc34)C2=O)cc1 (stereo not shown) [Compound 9h, 5″-Chloro-1-(4-ethoxyphenyl)-1′-methyldispiro[imidazolidine-4,3′-pyrrolidine-4′,3″-indoline]-2,2″,5-trione]

melting point: 268 to 269 °C
Structure (SMILES): CN1CC2(NC(=S)N(c3ccccc3)C2=O)C2(C1)C(=O)Nc1ccc(Cl)cc12 (stereo not shown) [Compound 4x, 5″-Chloro-1′-methyl-1-phenyl-2-thioxodispiro[imidazolidine-4,3′-pyrrolidine-4′,3″-indoline]-2″,5-dione]
CC50 [1]: > 100 µM
CC50 at 72 h [2]: > 100 µM
CC50 [3]: > 100 µM
CC50 [5]: > 100 µM
CC50 ([6]; MTT test): > 100 µM
CC50 [8]: > 100 µM
